# Assay results taken from patent publication US4950675A, “Pyridine di-mevalono-lactones as inhibitors of cholesterol biosynthesis” (Warner-Lambert Company, priority 1988, dated 1990).
# pIC50: −log10 of the molar value. Counter-ions that a name gives are not always drawn.
# Tests used:
# [1] = system: cholesterol synthesis; experiment: AICS screen: plasma [14C]cholesterol after oral dosing of cholestyramine-fed rats (inhibition of cholesterol synthesis); type: in vivo; details: male Sprague-Dawley rats fed 5% cholestyramine; for inhibition at 1 mg/kg: Rattus norvegicus
# Method: The ability of compound s of the present invention to inhibit the biosynthesis of cholesterol was also measured by a method (designated AICS screen) which utilizes the procedure described by A. W. Alberts et al, Proc. Natl. Acad. Sci., (1980), 77, pp 3957-3961.
# In this method male Sprague-Dawley rats (200 g body weight) previously fed 5% cholestyramine for three days were randomly divided into groups (N=5/group) and given a single dose of vehicle (controls) or compound by an oral gavage at the indicated doses. One hour after drug dosing, all rats were injected intraperitoneally with sodium[1-^14 C]-acetate (18.75 μCi/rat in 0.2 ml saline). After 50 minutes, blood samples were taken, plasma obtained by centrifugation, and plasma [^14 C] cholesterol measured after saponification and extraction.
# [2] = target: sterol synthesis by rat liver homogenate (HMG-CoA reductase); experiment: CSX screen ("CSI" in Table 2): inhibition of sterol synthesis from 14C-acetate in rat liver homogenate; type: biochemical; details: 50% inhibition of sterol synthesis over a one-hour period
# Method: The ability of compound s of the present invention to inhibit the biosynthesis of cholesterol was measured by a method (designated CSX screen) which utilizes the procedure described by R. E. Dugan, et al, Archiv. Biochem. Biophys., (1972), 152, 21-27. In this method, the level of HMG-CoA enzyme activity in standard laboratory rats is increased by feeding the rats a chow diet containing 5% cholestyramine for four days, after which the rats are sacrificed.
# The rat livers are homogenized, and the incorporation of […] into nonsaponifiable lipid by the rat liver homogenate is measured. The micromolar concentration of compound required for 50% inhibition of sterol synthesis over a one-hour period is measured, and expressed as an IC50 value.
pIC50 [2],Compound,"inhibition at 1 mg/kg ([1]; Table 1, single oral gavage) [%]","inhibition at 1 mg/kg ([1]; Table 2, single oral gavage) [%]","AICS % Inhibition of Cholesterol Synthesis ([1]; Table 2, 1.0 mg/kg, single oral gavage) [%]"
,"CCc1nc(CC)c(/C=C/C2CC(O)CC(=O)O2)c(-c2ccc(F)cc2)c1/C=C/C1CC(O)CC(=O)O1 (stereo not drawn) [6,6'-[2,6-diethyl-4-(4-fluorophenyl)-3,5-pyridinediyl]di[2,1-ethenediyl]bis[4α,6β(E)][tetrahydro-4-hydroxy-2H -pyran-2-one]]",-3,,
7.49,"CCc1nc(CC)c(/C=C/C(O)CC(O)CC(=O)O)c(-c2ccc(F)cc2)c1/C=C/C(O)CC(O)CC(=O)O (stereo not drawn) [[R*,S*(E)]7,7'-[2,6-diethyl-4-(4-fluorophenyl)-3,5-pyridinediyl]bis[3,5-dihydroxy-6-heptenoic acid, disodium salt]]",,-16,
,"CC(C)c1nc(C(C)C)c(/C=C/C2CC(O)CC(=O)O2)c(-c2ccc(F)cc2)c1/C=C/C1CC(O)CC(=O)O1 (stereo not drawn) [6,6'-[[2,6-bis(1-methylethyl)-4-(4-fluorophenyl)-3,5-pyridinediyl]di-1,2-ethenediyl]bis [4α,6B(E)] tetrahydro-4-hydroxy-2H-pyran-2-one]]",-65,,
8.25,"CC(C)c1nc(C(C)C)c(C=CC(O)CC(O)CC(=O)[O-])c(-c2ccc(F)cc2)c1C=CC(O)CC(O)CC(=O)[O-].[Na+].[Na+] (stereo not drawn) [[R*,S*(E)]-7,7'-[2,6-bis(1-methylethyl)-2,4-(4-fluorophenyl)-3,5-pyridinediyl]bis [3,5-dihydroxy-6-heptenoio acid, disodium salt]]",,,-21
